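Briefly, cells in 96-well plates were exposed to five compound concentrations for 48 h, and endpoints were estimated by linear interpolation. At the GI50, growth is halved.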 The source made the active and inactive calls. Cut-off read from the data, not from the text of the source: active = GI50 up to about 1.1 µM and inactive = higher. Bounds are passed on as bounds.

What all share (assay): NCI anticancer screen, dose series, 48 h
In assay [1] the test system is NCI-H460.
The test system of assay [2] is SN12C.
The subject of assay [3] is OVCAR-4.
Assay [4] relates to U-251.
Assay [5] has as its system IGROV-1.
Assay [6] deals with 786-0.
Assay [7] relates to OVCAR-8.
For assay [8], the system named is M14.
Assay [9] has as its system MDA-MB-435.
Assay [10] deals with Malme-3M.
The subject of assay [11] is SK-MEL-2.
The subject of assay [12] is NCI/ADR-RES.
The subject of assay [13] is SF-268.
The test system of assay [14] is MDA-MB-231.
The test system of assay [15] is T47D.
For assay [16], the system named is HT-29.
Assay [17] has as its system TK-10.
In assay [18] the test system is UO-31.
The test system of assay [19] is HCC 2998.

`CCOC(=O)c1nc2ccc(C(F)(F)F)cc2nc1Oc1cc(OC)cc(OC)c1`: the GI50 in assay [1] was 60.5 µM (inactive); in assay [2] it was > 100 µM (inactive); in assay [3], 26.4 µM (inactive); in assay [4] it was 87.9 µM (inactive); in [5], 41.7 µM (inactive); in assay [6], > 100 µM (inactive). For the same molecule, the GI50 in [7] is > 100 µM (inactive); in assay [8], > 100 µM (inactive); in assay [9], 77.6 µM (inactive); in assay [10], 35.8 µM (inactive); in assay [11], > 100 µM (inactive); in [12] it was > 100 µM (inactive). The GI50 was 93.3 µM (inactive) in assay [13]; > 100 µM (inactive) in [14]; > 100 µM (inactive) in assay [15]; > 100 µM (inactive) in assay [16]; > 100 µM (inactive) in assay [17]; > 100 µM (inactive) in [18].

`COc1cc(/C=C2\N=C(c3ccccc3)N(c3nc4cc(C)c(C)cc4s3)C2=O)cc(OC)c1OC`: the GI50 in assay [1] was 29.2 µM (inactive); in assay [2], 34.8 µM (inactive); in assay [3], 21.3 µM (inactive); in assay [4], 21.8 µM (inactive); in assay [5], 15.9 µM (inactive); in [6], 27.6 µM (inactive). Besides, the GI50 is 19.8 µM (inactive) in [7]; 33.3 µM (inactive) in assay [8]; 12.9 µM (inactive) in assay [9]; 32 µM (inactive) in [11]; 28.1 µM (inactive) in assay [12]; 23 µM (inactive) in assay [13]. The GI50 is 43.6 µM (inactive) in assay [14]; 40.9 µM (inactive) in assay [15]; 19 µM (inactive) in [16]; 60 µM (inactive) in assay [17]; 24.7 µM (inactive) in assay [18]; 20.9 µM (inactive) in assay [19].

On to `CC1(C)C2CC(=O)C1(C)C(O)C2Br` (centres undefined), for which the GI50 in [1], in assay [2], in assay [4], in [5], in [6] and in [7] was > 100 µM (inactive) throughout. Moreover, the GI50 in [8], in assay [9], in assay [10], in [11], in assay [12] and in assay [13] was > 100 µM (inactive) in each case. The GI50 in assay [14], in [15], in [16], in [17], in assay [18] and in assay [19] was > 100 µM (inactive) throughout.

Consider `CCN(CC)c1ccc2cc(C(=O)Nc3ccc(C)cc3)c(=N)oc2c1`, for which the GI50 in assay [1], in [2], in assay [3], in assay [4], in assay [5] and in assay [6] was > 100 µM (inactive) each time. In addition, the GI50 in assay [7], in assay [8], in assay [9], in assay [10], in assay [11] and in [12] was > 100 µM (inactive) each time. The GI50 in [13], in [14], in assay [15], in [16] and in assay [19] was > 100 µM (inactive) in each case.

Take `COc1ccc(/C=N/NC(=O)c2cnc3[nH]c(=O)n(C)c(=O)c3c2)cc1`: the GI50 in [1] was > 100 µM (inactive); in [2] it was 88.3 µM (inactive); in [3] it was > 100 µM (inactive); in assay [4], 36.7 µM (inactive); in [5] it was 34.9 µM (inactive); in assay [6], 34.4 µM (inactive). The GI50 in assay [7] was 40.6 µM (inactive); in assay [8], > 100 µM (inactive); in [9] it was > 100 µM (inactive); in assay [10] it was > 100 µM (inactive); in assay [11], 44.3 µM (inactive); in assay [12] it was 97.3 µM (inactive). The GI50 in [13] was 45.2 µM (inactive); in assay [14], 27 µM (inactive); in assay [15], > 100 µM (inactive); in assay [16], > 100 µM (inactive); in assay [17], 46.5 µM (inactive); in assay [18], > 100 µM (inactive). The GI50 in [19] was > 100 µM (inactive).

Consider `O=c1[nH][nH]c(=O)n1/N=C/c1ccccc1`, for which the GI50 in [1], in assay [2], in [4], in [5], in assay [6] and in [7] was > 100 µM (inactive) in each case. For the same molecule, the GI50 in [8], in assay [9], in [11], in [12], in assay [13] and in assay [14] was > 100 µM (inactive) throughout. In addition, the GI50 in assay [15], in assay [16], in [17] and in assay [18] was > 100 µM (inactive) each time.

For the molecule `COc1ccc(/C=N/NC(=O)c2ccccc2Nc2ccccc2C(=O)N/N=C/c2ccc(OC)c(OC)c2)cc1OC`, the GI50 in [1], in [2], in assay [3], in assay [4], in assay [5] and in [6] was > 100 µM (inactive) in each case. Further, the GI50 is > 100 µM (inactive) in assay [7]; 36.5 µM (inactive) in [8]; > 100 µM (inactive) in assay [9]; 51.5 µM (inactive) in assay [10]; > 100 µM (inactive) in [11]; > 100 µM (inactive) in [12]. Further, the GI50 in assay [13] is > 100 µM (inactive); in assay [14], 29.6 µM (inactive); in assay [15] it was > 100 µM (inactive); in assay [16] it was > 100 µM (inactive); in assay [17], > 100 µM (inactive); in assay [18], > 100 µM (inactive). Moreover, the GI50 in [19] was > 100 µM (inactive).

Take `N#Cc1nc(Cc2ccccc2)oc1N`: the GI50 in [1], in assay [2], in assay [3], in assay [4], in assay [5] and in assay [6] was > 100 µM (inactive) throughout. Also, the GI50 in [8], in assay [9], in [10], in assay [11], in assay [13] and in assay [14] was > 100 µM (inactive) throughout. In addition, the GI50 in assay [15], in assay [16], in assay [17] and in assay [18] was > 100 µM (inactive) in each case.

Take `O=C1Oc2ccccc2C(=O)/C1=C/N1C(=O)N/C(=C\c2cccc(O)c2)C1=O`: the GI50 in assay [1] was 59 µM (inactive); in [2] it was 69.5 µM (inactive); in [3] it was 85.9 µM (inactive); in [4] it was > 100 µM (inactive); in assay [5] it was 31.3 µM (inactive); in assay [6], 74.8 µM (inactive). Moreover, the GI50 was 33.2 µM (inactive) in assay [7]; 83.8 µM (inactive) in assay [8]; 54.2 µM (inactive) in [9]; 46.2 µM (inactive) in assay [11]; > 100 µM (inactive) in assay [12]; 62.4 µM (inactive) in assay [14]. Besides, the GI50 was 54.2 µM (inactive) in assay [15]; > 100 µM (inactive) in assay [16]; 46.1 µM (inactive) in [17]; 29.5 µM (inactive) in assay [18]; 55.7 µM (inactive) in assay [19].

`CCCCCCCCCCCC[C@@H](O)[C@H]1CC[C@H]([C@H]2CC[C@H]([C@H](O)CC[C@H](O)CCCCCCCC3=C[C@H](C)OC3=O)O2)O1`: the GI50 in assay [1] is 1.08 µM (active); in assay [2] it was 3.22 µM (inactive); in assay [4], 2.13 µM (inactive); in assay [5], 1.65 µM (inactive); in assay [6], 2.4 µM (inactive); in [7] it was 1.82 µM (inactive). The GI50 in [8] is 1.64 µM (inactive); in [9], 1.77 µM (inactive); in assay [11], 1.52 µM (inactive); in assay [12], 1.29 µM (inactive); in [13], 1.55 µM (inactive); in assay [14], 2.62 µM (inactive). The GI50 was 3.4 µM (inactive) in assay [15], 1.76 µM (inactive) in assay [16], 1.21 µM (inactive) in assay [17] and 0.562 µM (active) in [18].

Turning to `Cc1cc(OP2(=O)NCc3ncccc3O2)ccc1Cl` (centres undefined), the GI50 in assay [1], in assay [2], in assay [3], in assay [4], in assay [5] and in assay [6] was > 100 µM (inactive) in each case. Further, the GI50 in assay [7], in [8], in [9], in assay [11], in [12] and in [14] was > 100 µM (inactive) throughout. In addition, the GI50 in assay [15] is > 100 µM (inactive); in assay [18], > 100 µM (inactive); in assay [19], 40.6 µM (inactive).

Values taken from ChEMBL document CHEMBL1201862, “PubChem BioAssay data set” (2004).
